# Results as given in the supplement of paper PMC10307832.
# Experiments:
# Assay in all cases: relative viability (nuclei count vs DMSO), 5 days (fraction); higher = more cells survive
# MLN4924 + Decitabine = compound: NS(=O)(=O)OC[C@@H]1C[C@@H](n2ccc3c(N[C@H]4CCc5ccccc54)ncnc32)C[C@@H]1O [MLN4924] + Nc1ncn([C@H]2C[C@H](O)[C@@H](CO)O2)c(=O)n1 [Decitabine] (partner 2 µM)
# Summary of the method: (§1)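 After 5 days of treatment, lung cancer cells in 1536-well plates were fixed and stained in a single step (final 0.05% Triton X-100, 1% formaldehyde, 1 ug/ml Hoechst) and their nuclei counted on 4× images. Treatment had been applied by pin tool the day after seeding as one drug alone or as a fixed anchor-drug dose with five library-drug doses (not always all listed) in √10 steps. Relative viability is the nuclei count of treated wells divided by that of vehicle wells, and values are medians of duplicate plates.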
# GSK126 + Navitoclax = compound: CC[C@H](C)N1C=C(C2=C(C=C(C=C21)C3=CN=C(C=C3)N4CCNCC4)C(=O)NCC5=C(C=C(NC5=O)C)C)C [GSK126] + CC1(C)CCC(c2ccc(Cl)cc2)=C(CN2CCN(c3ccc(C(=O)NS(=O)(=O)c4ccc(N[C@H](CCN5CCOCC5)CSc5ccccc5)c(S(=O)(=O)C(F)(F)F)c4)cc3)CC2)C1 [Navitoclax] (partner 0.5 µM)
# Summary of the method: as §1
# MLN4924 + Vorinostat = compound: NS(=O)(=O)OC[C@@H]1C[C@@H](n2ccc3c(N[C@H]4CCc5ccccc54)ncnc32)C[C@@H]1O [MLN4924] + O=C(CCCCCCC(=O)Nc1ccccc1)NO [Vorinostat] (partner 1 µM)
# Summary of the method: as §1
# MLN4924 + AZD7762 = compound: NS(=O)(=O)OC[C@@H]1C[C@@H](n2ccc3c(N[C@H]4CCc5ccccc54)ncnc32)C[C@@H]1O [MLN4924] + NC(=O)Nc1cc(-c2cccc(F)c2)sc1C(=O)N[C@H]1CCCNC1 [AZD7762] (partner 0.2 µM)
# Summary of the method: as §1
Cell Line,relative viability (MLN4924 + Decitabine; first compound 0.04 µM),relative viability (MLN4924 + Decitabine; first compound 0.1265 µM),relative viability (MLN4924 + Decitabine; first compound 0.4 µM),relative viability (MLN4924 + Decitabine; first compound 1.265 µM),relative viability (MLN4924 + Decitabine; first compound 4 µM),relative viability (GSK126 + Navitoclax; first compound 0.08 µM),relative viability (GSK126 + Navitoclax; first compound 0.253 µM),relative viability (GSK126 + Navitoclax; first compound 0.8 µM),relative viability (GSK126 + Navitoclax; first compound 2.53 µM),relative viability (GSK126 + Navitoclax; first compound 8 µM),relative viability (MLN4924 + Vorinostat; first compound 0.04 µM),relative viability (MLN4924 + Vorinostat; first compound 0.1265 µM),relative viability (MLN4924 + Vorinostat; first compound 0.4 µM),relative viability (MLN4924 + Vorinostat; first compound 1.265 µM),relative viability (MLN4924 + Vorinostat; first compound 4 µM),relative viability (MLN4924 + AZD7762; first compound 0.04 µM),relative viability (MLN4924 + AZD7762; first compound 0.1265 µM),relative viability (MLN4924 + AZD7762; first compound 0.4 µM),relative viability (MLN4924 + AZD7762; first compound 1.265 µM),relative viability (MLN4924 + AZD7762; first compound 4 µM)
NCI-H1944,0.454,0.324,0.334,0.17,0.146,1.28,1.02,1.01,0.996,1.2,0.543,0.539,0.613,0.203,0.158,0.766,0.627,0.39,0.186,0.123
HARA,0.496,0.379,0.379,0.203,0.156,1.18,1.11,1.1,1.15,1.14,0.48,0.144,0.174,0.0809,0.0682,0.42,0.328,0.415,0.0749,0.106
NCI-H2347,0.623,0.694,0.495,0.413,0.335,1.03,0.679,0.688,0.799,0.772,0.494,0.562,0.433,0.347,0.327,0.904,0.834,0.536,0.252,0.242
COR-L 105,0.658,0.523,0.397,0.263,0.328,0.813,0.745,0.754,0.678,0.719,0.71,0.709,0.353,0.232,0.403,–,–,–,–,–
